# Measurements from patent publication US20060166989A1, “2-naphthamide derivatives” (Bayer Healthcare AG, priority 2002, published 2006).
# How the values were obtained:
# IP receptor = target: T1, IP receptor (Homo sapiens, UniProt P43119); test: Iloprost-induced cAMP production assay in HEL cells (Assay 2); format: cell-based; settings: read-out: Activity grade assay 2
# T1 construct: HEL cells were collected with centrifugation and washed with cAMP assay buffer; host or cells: HEL 92.1.7 human erythroleukemia cells
# Protocol: [Iloprost-Induced cAMP Production Assay in HEL Cells] (Assay 2)
# HEL cells were collected with centrifugation and washed with cAMP assay buffer (CAB: Hank's balanced salt solution, 17 mM Hepes, 0.1% bovine serum albumin, 1 mM IBMX, 0.4% DMSO, and 1 mM L-ascorbic acid sodium salt (pH 7.4)). Cells were suspended at the density of 2.5×10^5 cells/ml in CAB, and twenty thousand cells in 80 μl aliquot of cell suspension were put in a well of 96 well plate (Falcon). Then, 10 μl of compound solution diluted with 1% DMSO in CAB or buffer alone was added. The plate was incubated at 37° C. for 30 min. Then, another 10 μl containing 100 nM iloprost in CAB or buffer alone was added and further incubated at 37° C. for 30 min. cAMP content in the well was measured by a cAMP ELISA kit (Applied Biosystems, USA).
# Results of Iloprost-induced cAMP production assay (Assay2) are shown in Examples and tables of the Examples below. For practical reasons, the compounds are grouped in three classes of activity as follows: A(=or<)0.1μM<B(=or<)1μM<C
# T1 sequence (P43119 whole entry): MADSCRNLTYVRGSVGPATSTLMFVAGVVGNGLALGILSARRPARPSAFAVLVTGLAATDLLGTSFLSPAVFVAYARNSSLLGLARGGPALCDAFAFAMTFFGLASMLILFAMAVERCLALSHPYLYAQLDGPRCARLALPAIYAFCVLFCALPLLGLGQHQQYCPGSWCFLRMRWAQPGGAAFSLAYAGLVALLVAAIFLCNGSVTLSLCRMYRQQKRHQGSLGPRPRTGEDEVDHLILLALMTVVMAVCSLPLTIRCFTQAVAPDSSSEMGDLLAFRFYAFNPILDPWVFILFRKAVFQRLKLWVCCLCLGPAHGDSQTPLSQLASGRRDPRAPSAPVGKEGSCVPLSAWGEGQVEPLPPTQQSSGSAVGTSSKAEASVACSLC
SMILES,IC50 (IP receptor),melting point
O=C(NC(Cc1ccccc1)C(=O)O)c1ccc2cc(OCc3ccc(Br)cc3)ccc2c1 (stereo not shown) [Example 1-53],> 1 µM,232 °C
Cc1ccc(COc2ccc3cc(C(=O)NC(Cc4ccccc4)C(=O)O)ccc3c2)cc1 (stereo not shown) [Example 1-56],0.1 to 1 µM,212 °C
Cc1cc(C)cc(COc2ccc3cc(C(=O)NC(Cc4ccccc4)C(=O)O)ccc3c2)c1 (stereo not shown) [Example 1-57],0.1 to 1 µM,167 to 168 °C
Cc1ccc(COc2ccc3cc(C(=O)NC(Cc4ccccc4)C(=O)O)ccc3c2)cc1C (stereo not shown) [Example 1-58],0.1 to 1 µM,189 °C
O=C(NC(Cc1ccccc1)C(=O)O)c1ccc2cc(OCc3ccc(F)cc3F)ccc2c1 (stereo not shown) [Example 1-59],0.1 to 1 µM,199 °C
CC(Oc1ccc2cc(C(=O)NC(Cc3ccccc3)C(=O)O)ccc2c1)c1ccccc1 (stereo not shown) [Example 1-60],0.1 to 1 µM,170 to 172 °C
Cc1nc(COc2ccc3cc(C(=O)NC(Cc4ccccc4)C(=O)O)ccc3c2)cs1 (stereo not shown) [Example 1-62],0.1 to 1 µM,208 °C
O=C(NC(Cc1ccccc1)C(=O)O)c1ccc2cc(OCCCn3cccc3)ccc2c1 (stereo not shown) [Example 1-63],0.1 to 1 µM,195 °C
O=C(NC(Cc1ccccc1)C(=O)O)c1ccc2cc(OCCCc3ccccc3)ccc2c1 (stereo not shown) [Example 1-64],0.1 to 1 µM,182 °C
CCCCOc1ccc2cc(C(=O)NC(Cc3ccccc3)C(=O)O)ccc2c1 (stereo not shown) [Example 1-65],0.1 to 1 µM,209 °C
Nc1ccc(CC(NC(=O)c2ccc3cc(OCc4ccccc4)ccc3c2)C(=O)O)cc1 (stereo not shown) [Example 1-66],> 1 µM,238 to 240 °C
CS(=O)(=O)Nc1ccc(CC(NC(=O)c2ccc3cc(OCc4ccccc4)ccc3c2)C(=O)O)cc1 (stereo not shown) [Example 1-68],> 1 µM,236 to 237 °C
O=C(NC(Cc1ccncc1)C(=O)O)c1ccc2cc(OCc3ccccc3)ccc2c1 (stereo not shown) [Example 1-69],0.1 to 1 µM,260 to 262 °C (dec.)
O=C(NC(Cc1ccccc1)C(=O)O)c1ccc2cc(OCc3cccc4ccccc34)ccc2c1 (stereo not shown) [Example 1-70],0.1 to 1 µM,220 °C
O=C(NC(CCc1ccccc1)C(=O)O)c1ccc2cc(OCc3ccccc3)ccc2c1 (stereo not shown) [Example 1-72],> 1 µM,223 to 225 °C
O=C(NC(Cc1ccc(-c2ccccc2)cc1)C(=O)O)c1ccc2cc(OCc3ccccc3)ccc2c1 (stereo not shown) [Example 1-73],0.1 to 1 µM,250 to 252 °C
O=C(NC(Cc1ccccc1)C(=O)O)c1ccc2cc(OCC3CCCCC3)ccc2c1 (stereo not shown) [Example 1-74],0.1 to 1 µM,220 °C
O=C(NC(Cc1ccc(-c2ccncc2)cc1)C(=O)O)c1ccc2cc(OCc3ccccc3)ccc2c1 (stereo not shown) [Example 1-75],0.1 to 1 µM,247 to 249 °C (dec.)

SMILES,IC50 (IP receptor),melting point
O=C(NC(Cc1ccc(N2CCOCC2)cc1)C(=O)O)c1ccc2cc(OCc3ccccc3)ccc2c1 (stereo not shown) [Example 1-76],> 1 µM,216 to 218 °C (dec.)
O=C(NC(Cc1ccccc1)C(=O)O)c1ccc2cc(OCCc3cccnc3)ccc2c1 (stereo not shown) [Example 1-77],0.1 to 1 µM,113 °C
O=C(NC(Cc1ccccc1)C(=O)O)c1ccc2cc(OCCc3ccccn3)ccc2c1 (stereo not shown) [Example 1-78],0.1 to 1 µM,143 °C
O=C(NC(Cc1ccccc1)C(=O)O)c1ccc2cc(OCCN3CCCC3)ccc2c1 (stereo not shown) [Example 1-81],> 1 µM,234 °C
O=C(NC(Cc1ccccc1)C(=O)O)c1ccc2cc(OCCN3CCCCC3)ccc2c1 (stereo not shown) [Example 1-82],> 1 µM,215 °C
CC(Cc1ccccc1)(NC(=O)c1ccc2cc(OCc3ccccc3)ccc2c1)C(=O)O (stereo not shown) [Example 1-84],0.1 to 1 µM,184 °C
O=C(NC(Cc1ccccc1)C(=O)O)c1ccc2cc(OCCn3ccnc3)ccc2c1 (stereo not shown) [Example 1-86],0.1 to 1 µM,172 °C (dec.)
O=C(NC(Cc1ccccc1)C(=O)O)c1ccc2cc(OCc3ccc[n+]([O-])c3)ccc2c1 (stereo not shown) [Example 1-87],> 1 µM,252 °C (dec.)
O=C(NC(Cc1ccccc1)C(=O)O)c1ccc2cc(OCc3cccc(OCC4CCCCC4)c3)ccc2c1 (stereo not shown) [Example 1-88],> 1 µM,180 °C
O=C(NC(Cc1ccccc1)C(=O)O)c1ccc2cc(OCc3cccc(OCC4CC4)c3)ccc2c1 (stereo not shown) [Example 1-89],0.1 to 1 µM,179 °C
CCCCOc1cccc(COc2ccc3cc(C(=O)NC(Cc4ccccc4)C(=O)O)ccc3c2)c1 (stereo not shown) [Example 1-90],0.1 to 1 µM,172 °C
CCOc1cccc(COc2ccc3cc(C(=O)NC(Cc4ccccc4)C(=O)O)ccc3c2)c1 (stereo not shown) [Example 1-91],< 0.1 µM,145 °C
CCCOc1cccc(COc2ccc3cc(C(=O)NC(Cc4ccccc4)C(=O)O)ccc3c2)c1 (stereo not shown) [Example 1-92],0.1 to 1 µM,173 °C
CC(C)COc1cccc(COc2ccc3cc(C(=O)NC(Cc4ccccc4)C(=O)O)ccc3c2)c1 (stereo not shown) [Example 1-93],0.1 to 1 µM,140 °C
CC(COc1ccc2cc(C(=O)NC(Cc3ccccc3)C(=O)O)ccc2c1)c1ccccc1 (stereo not shown) [Example 1-94],< 0.1 µM,160 °C
"O=C(N[C@H](Cc1ccccc1)C(=O)O)c1ccc2cc(OCc3ccccc3)ccc2c1 [Example 2-1, N-[6-(benzyloxy)-2-naphthoyl]-D-phenylalanine]",< 0.1 µM,179 °C
"O=C(N[C@@H](Cc1ccccc1)C(=O)O)c1ccc2cc(Oc3ccccc3)ccc2c1 [Example 3-1, N-(6-phenoxy-2-naphthoyl)phenylalanine]",> 1 µM,179 to 180 °C
"O=C(N[C@@H](Cc1ccccc1)C(=O)O)c1ccc2cc(NCc3ccccc3)ccc2c1 [Example 4-1, N-[6-(benzylamino)-2-naphthoyl]phenylalanine]",0.1 to 1 µM,172 °C

# Next, values leading:
IC50 (IP receptor),melting point,SMILES
< 0.1 µM,219 to 220 °C,O=C(NC(Cc1ccc(Br)cc1)C(=O)O)c1ccc2cc(OCc3ccccc3)ccc2c1 (stereo not shown) [Example 1-45]
< 0.1 µM,227 to 228 °C,O=C(NC(Cc1ccc([N+](=O)[O-])cc1)C(=O)O)c1ccc2cc(OCc3ccccc3)ccc2c1 (stereo not shown) [Example 1-46]
< 0.1 µM,214 °C,O=C(NC(Cc1cccc(O)c1)C(=O)O)c1ccc2cc(OCc3ccccc3)ccc2c1 (stereo not shown) [Example 1-47]
< 0.1 µM,218 °C,O=C(NC(Cc1cccc2ccccc12)C(=O)O)c1ccc2cc(OCc3ccccc3)ccc2c1 (stereo not shown) [Example 1-48]
< 0.1 µM,261 to 262 °C (dec.),O=C(NC(Cc1c[nH]c2ccc(O)cc12)C(=O)O)c1ccc2cc(OCc3ccccc3)ccc2c1 (stereo not shown) [Example 1-49]
< 0.1 µM,211 to 213 °C,O=C(NC(Cc1ccccc1F)C(=O)O)c1ccc2cc(OCc3ccccc3)ccc2c1 (stereo not shown) [Example 1-50]
< 0.1 µM,206 to 207 °C,O=C(NC(Cc1ccccc1)C(=O)O)c1ccc2cc(OCc3ccccc3Br)ccc2c1 (stereo not shown) [Example 1-51]
< 0.1 µM,194 °C,O=C(NC(Cc1ccccc1)C(=O)O)c1ccc2cc(OCc3cccc(Br)c3)ccc2c1 (stereo not shown) [Example 1-52]
< 0.1 µM,204 °C,Cc1ccccc1COc1ccc2cc(C(=O)NC(Cc3ccccc3)C(=O)O)ccc2c1 (stereo not shown) [Example 1-54]
< 0.1 µM,184 to 185 °C,Cc1cccc(COc2ccc3cc(C(=O)NC(Cc4ccccc4)C(=O)O)ccc3c2)c1 (stereo not shown) [Example 1-55]
< 0.1 µM,193 to 194 °C,O=C(NC(Cc1ccccc1)C(=O)O)c1ccc2cc(OCc3cccc([N+](=O)[O-])c3)ccc2c1 (stereo not shown) [Example 1-61]
< 0.1 µM,226 to 227 °C,O=C(NC(Cc1ccc2ccccc2c1)C(=O)O)c1ccc2cc(OCc3ccccc3)ccc2c1 (stereo not shown) [Example 1-67]
< 0.1 µM,219 to 221 °C,O=C(NC(Cc1ccc(I)cc1)C(=O)O)c1ccc2cc(OCc3ccccc3)ccc2c1 (stereo not shown) [Example 1-71]
< 0.1 µM,236 to 238 °C (dec.),O=C(NC(Cc1c[nH]c2ccc(F)cc12)C(=O)O)c1ccc2cc(OCc3ccccc3)ccc2c1 (stereo not shown) [Example 1-79]
< 0.1 µM,275 to 277 °C (dec.),O=C(NC(Cc1c[nH]c2ncccc12)C(=O)O)c1ccc2cc(OCc3ccccc3)ccc2c1 (stereo not shown) [Example 1-80]
< 0.1 µM,190 °C,O=C(NC(Cc1ccccc1)C(=O)O)c1ccc2cc(OCCc3ccncc3)ccc2c1 (stereo not shown) [Example 1-83]
< 0.1 µM,157 °C,O=C(NC(Cc1ccccc1)C(=O)O)c1ccc2cc(OCc3cccc(O)c3)ccc2c1 (stereo not shown) [Example 1-85]
